From patent US9951039B2, “Pyrimidines for treatment of bacterial infections” (The Hong Kong Polytechnic University, priority 2016, dated 2018)
≈ marks a conversion by molar mass, not a printed value. Like-named read-outs stand apart in the source and are kept apart here.

Assays:
[1] = tested on: USA300 #757 (community-associated MRSA); experiment: MIC against clinically isolated strain 7; type: cell-based, S. aureus; conditions: Staphylococcus aureus
Protocol: (§1) Procedure of Antimicrobial susceptibility test: The MIC value of compounds was measured in the antimicrobial susceptibility test using the broth microdilution procedure in accordance with the CLSI guidelines.^21 Cation-adjusted Mueller Hinton broth (CA-MHB) was used for all the S. aureus strains in the assay. Cells in exponential phase of growth were diluted to approximately 5×10^5 cfu/mL. Stock solutions of each compound were freshly dissolved in dimethyl sulfoxide (DMSO). Then, serial dilutions of each compound in CA-MHB medium were added into 96-well microplate. The final percentage of DMSO in the assay was 1%. Control experiments were performed with 1% DMSO instead of the compound solution. After being incubated at 37° C. for 18 h, OD600 value of cells was measured on a microplate reader and the percentage of bacterial cell inhibition with respect to controls was calculated. The MIC value was defined as the lowest compound concentration at which the growth of bacteria was inhibited by ≥90%. Three independent assays were performed for each compound.
(§2) Results: Three compounds, namely 14av_amine16, 14dv_amine16 and 14dv_amine06, were selected to be tested against nine in-house clinically isolated bacterial strains including S. aureus ATCC29247, which is an ampicillin resistant strain, S. aureus ATCC BAA-41, ATCC BAA-1717, ATCC BAA-1720, ATCC 43300 which are methicillin resistant strains and four USA300 strains, (#417, #757, #1799 and #2690), which are the predominant strain type of community-associated MRSA strains in the United States.

[2] = tested on: S. aureus ATCC 29247 (ampicillin resistant strain); experiment: MIC against clinically isolated strain 1; type: cell-based; conditions: Staphylococcus aureus, ATCC29247
Protocol: as §1, §2

[3] = tested on: S. aureus ATCC 43300 (methicillin resistant); experiment: MIC against clinically isolated strain 5; type: cell-based; conditions: Staphylococcus aureus, ATCC43300
Protocol: as §1, §2

[4] = tested on: S. aureus ATCC BAA-1720 (methicillin resistant); experiment: MIC against clinically isolated strain 3; type: cell-based; conditions: Staphylococcus aureus, ATCCBAA1720
Protocol: as §1, §2

[5] = tested on: S. aureus ATCC BAA-41 (methicillin resistant); experiment: MIC against clinically isolated strain 4; type: cell-based; conditions: Staphylococcus aureus, ATCCBAA41
Protocol: as §1, §2

[6] = tested on: USA300 #417 (community-associated MRSA); experiment: MIC against clinically isolated strain 6; type: cell-based, S. aureus; conditions: Staphylococcus aureus
Protocol: as §1, §2

[7] = tested on: S. aureus strain ATCC29213; experiment: MIC, broth microdilution antimicrobial susceptibility test (CLSI); type: cell-based; conditions: for MIC^c/MIC^b: Selectivity index: E. coli ATCC 25922 MIC over S. aureus 29213 MIC; for MIC: Staphylococcus aureus; for antibacterial activity in words (SAR analysis): MIC screening, S. aureus
Excerpt: (§3) This example illustrates the evaluation of 2,4,6-trisubstituted pyrimidines 14 for their antimicrobial activities against the Gram positive S. aureus strain ATCC29213 and the Gram negative E. coli strain ATCC25922 by measuring their MIC, which is the lowest concentration of an antimicrobial agent that prevents visible growth of a microorganism in a broth dilution susceptibility test according to the standard method approved by the Clinical and Laboratory Standards Institute (CLSI) guidelines.^21
as §1

E. coli strain ATCC25922 = experiment: as above; type: cell-based; conditions: E. coli ATCC 25922, growth inhibited by ≥90%, 18 h; for MIC: Escherichia coli, ATCC25922, read-out: MIC^c: Minimum inhibitory concentration against E. coli
Excerpt: as §3, §1

[8] = tested on: USA300 #2690 (community-associated MRSA); experiment: MIC against clinically isolated strain 9; type: cell-based, S. aureus; conditions: Staphylococcus aureus
Protocol: as §1, §2

[9] = tested on: S. aureus ATCC BAA-1717 (methicillin resistant); experiment: MIC against clinically isolated strain 2; type: cell-based; conditions: Staphylococcus aureus, ATCCBAA1717
Protocol: as §1, §2

[10] = tested on: USA300 #1799 (community-associated MRSA); experiment: MIC against clinically isolated strain 8; type: cell-based, S. aureus; conditions: Staphylococcus aureus
Protocol: as §1, §2

[11] = ATCC29213, S. aureus 29213, growth inhibited by ≥90%, 18 h, read-out: MIC^b: Minimum inhibitory concentration against S. aureus
[12] = S. aureus ATCC29213, read-out: MIC against S. aureus
[13] = S. aureus 29213, growth inhibited by ≥90%, 18 h

Compound | MIC^b: Minimum inhibitory concentration against S. aureus [7, 13] [µM] | MIC^c: Minimum inhibitory concentration against E. coli (E. coli strain ATCC25922) [µM] | MIC^c/MIC^b: Selectivity index [7] | antibacterial activity in words (SAR analysis) [7] | other results
FC(F)(F)c1ccc(CN2CCCN(CCc3cc(-c4ccccc4)nc(-c4ccncc4)n3)CC2)cc1 [Compound 14dv_amine16, 1-(2-(6-phenyl-2-(pyridin-4-yl)pyrimidin-4-yl)ethyl)-4-(4-(trifluoromethyl)benzyl)-1,4-diazepane] | – | – | >25 | – | MIC [1]: 10 µM (≈ 5.18 µg/mL); MIC [2]: 5 µM (≈ 2.59 µg/mL); MIC [3]: 10 µM (≈ 5.18 µg/mL); MIC [4]: 10 µM (≈ 5.18 µg/mL); MIC [5]: 10 µM (≈ 5.18 µg/mL); MIC [6]: 10 µM (≈ 5.18 µg/mL); MIC [7, 11]: 5 µM (≈ 2.59 µg/mL); MIC [7, 12]: 5 to 8 µM (≈ 2.59 to 4.14 µg/mL); MIC (E. coli strain ATCC25922): > 125 µM; MIC [8]: 10 µM (≈ 5.18 µg/mL); MIC [9]: 5 µM (≈ 2.59 µg/mL); MIC [10]: 10 µM (≈ 5.18 µg/mL)
CCC(CC)c1cc(CCN2CCN(Cc3ccc(C(F)(F)F)cc3)CC2)nc(-c2ccncc2)n1 [Compound 14av_amine24] | 12 (≈ 5.97 µg/mL) | >125 | >10 | poor antibacterial activity | –
CCCCCc1cc(CCN2CCCN(Cc3ccc(C(C)C)cc3)CC2)nc(-c2ccncc2)n1 [Compound 14cv_amine06] | 10 (≈ 4.86 µg/mL) | >125 | >12 | – | –
CCCCCc1cc(CCN2CCCN(Cc3ccc(C(F)(F)F)cc3)CC2)nc(-c2ccncc2)n1 [Compound 14cv_amine16] | 10 (≈ 5.12 µg/mL) | >125 | >12 | poor antibacterial activity | –
CCC(CC)c1cc(CCN2CCN(Cc3cccc(C(F)(F)F)c3)CC2)nc(-c2ccncc2)n1 [Compound 14av_amine28] | 10 (≈ 4.98 µg/mL) | >125 | >12 | – | –
CCC(CC)c1cc(CCN2CCCN(Cc3ccc(C(C)(C)C)cc3)CC2)nc(-c2ccncc2)n1 [Compound 14av_amine07] | 16 (≈ 8 µg/mL) | >125 | >7 | – | –
Brc1ccc(CN2CCCN(CCc3cc(-c4ccccc4)nc(-c4ccncc4)n3)CC2)cc1 [Compound 14dv_amine08, 1-(4-bromobenzyl)-4-(2-(6-phenyl-2-(pyridin-4-yl)pyrimidin-4-yl)ethyl)-1,4-diazepane] | – | – | >25 | – | MIC [7, 11]: 5 µM (≈ 2.64 µg/mL); MIC [7, 12]: 5 to 8 µM (≈ 2.64 to 4.23 µg/mL); MIC (E. coli strain ATCC25922): > 125 µM
CC(C)c1ccc(CN2CCCN(CCc3cc(-c4ccccc4)nc(-c4ccncc4)n3)CC2)cc1 [Compound 14dv_amine06, 1-(4-isopropylbenzyl)-4-(2-(6-phenyl-2-(pyridin-4-yl)pyrimidin-4-yl)ethyl)-1,4-diazepane] | – | – | >25 | – | MIC [1]: 10 µM (≈ 4.92 µg/mL); MIC [2]: 5 µM (≈ 2.46 µg/mL); MIC [3]: 10 µM (≈ 4.92 µg/mL); MIC [4]: 10 µM (≈ 4.92 µg/mL); MIC [5]: 10 µM (≈ 4.92 µg/mL); MIC [6]: 10 µM (≈ 4.92 µg/mL); MIC [7, 11]: 5 µM (≈ 2.46 µg/mL); MIC [7, 12]: 5 to 8 µM (≈ 2.46 to 3.93 µg/mL); MIC (E. coli strain ATCC25922): > 125 µM; MIC [8]: 10 µM (≈ 4.92 µg/mL); MIC [9]: 5 µM (≈ 2.46 µg/mL); MIC [10]: 10 µM (≈ 4.92 µg/mL)
CCC(CC)c1cc(CCN2CCCN(Cc3ccc(C(F)(F)F)cc3)CC2)nc(-c2cccnc2)n1 [Compound 14ay_amine16] | – | – | – | weak antibacterial activity | –
CC(C)c1cc(CCN2CCCN(Cc3ccc(C(F)(F)F)cc3)CC2)nc(-c2ccncc2)n1 [Compound 14bv_amine16] | – | – | – | poor antibacterial activity | –
CC(C)(C)c1ccc(CN2CCCN(CCc3cc(-c4ccccc4)nc(-c4ccncc4)n3)CC2)cc1 [Compound 14dv_amine07, 1-(4-(tert-butyl)benzyl)-4-(2-(6-phenyl-2-(pyridin-4-yl)pyrimidin-4-yl)ethyl)-1,4-diazepane] | – | – | >25 | – | MIC [7, 11]: 5 µM (≈ 2.53 µg/mL); MIC [7, 12]: 5 to 8 µM (≈ 2.53 to 4.05 µg/mL); MIC (E. coli strain ATCC25922): > 125 µM
CCC(CC)c1cc(CCN2CCCN(CCc3ccc(C(F)(F)F)cc3)CC2)nc(-c2ccncc2)n1 [Compound 14av_amine20, 1-(2-(6-(pentan-3-yl)-2-(pyridin-4-yl)pyrimidin-4-yl)ethyl)-4-(4-(trifluoromethyl)phenethyl)-1,4-diazepane] | – | – | >15 | low MIC value | MIC [7, 11]: 8 µM (≈ 4.21 µg/mL); MIC [7, 12]: 5 to 8 µM (≈ 2.63 to 4.21 µg/mL); MIC (E. coli strain ATCC25922): > 125 µM
CCC(CC)c1cc(CCN2CCCN(Cc3ccc(C(C)C)cc3)CC2)nc(-c2ccncc2)n1 [Compound 14av_amine06] | 16 (≈ 7.77 µg/mL) | >125 | >7 | – | –
CCC(CC)c1cc(CCN2CCCN(Cc3ccc(Cl)cc3)CC2)nc(-c2ccncc2)n1 [Compound 14av_amine13] | 13 (≈ 6.22 µg/mL) | >125 | >9 | – | –
CCC(CC)c1cc(CCN2CCCN(Cc3ccc(Br)cc3)CC2)nc(-c2ccncc2)n1 [Compound 14av_amine08] | 16 (≈ 8.36 µg/mL) | >125 | >7 | – | –
CCC(CC)c1cc(CCN2CCCN(C(=O)c3ccc(C(F)(F)F)cc3)CC2)nc(-c2ccncc2)n1 [Compound 14av_amine19] | – | – | – | poor antibacterial activity | –
CCC(CC)c1cc(CCN2CCCN(Cc3ccc(C(F)(F)F)cc3)CC2)nc(-c2ccccn2)n1 [Compound 14az_amine16] | – | – | – | weak antibacterial activity | –
CCC(CC)c1cc(CCN2CCCN(Cc3ccccc3C(F)(F)F)CC2)nc(-c2ccncc2)n1 [Compound 14av_amine18] | 16 (≈ 8.19 µg/mL) | >125 | >7 | – | –
CCC(CC)c1cc(CCN2CCCN(Cc3ccc(C(F)(F)F)cc3)CC2)nc(-c2ccccc2)n1 [Compound 14ax_amine16] | – | – | – | weak antibacterial activity | –
CCC(CC)c1cc(CCN2CCCN(Cc3ccc(C(F)(F)F)cc3)CC2)nc(C)n1 [Compound 14aw_amine16] | – | – | – | weak antibacterial activity | –
FC(F)(F)c1ccc(CCN2CCCN(CCc3cc(-c4ccccc4)nc(-c4ccncc4)n3)CC2)cc1 [Compound 14dv_amine20, 1-(2-(6-phenyl-2-(pyridin-4-yl)pyrimidin-4-yl)ethyl)-4-(4-(trifluoromethyl)phenethyl)-1,4-diazepane] | – | – | >25 | – | MIC [7, 11]: 5 µM (≈ 2.66 µg/mL); MIC [7, 12]: 5 to 8 µM (≈ 2.66 to 4.25 µg/mL); MIC (E. coli strain ATCC25922): > 125 µM

More lines, main results first:

MIC^b: Minimum inhibitory concentration against S. aureus [7, 13] [µM] | MIC^c: Minimum inhibitory concentration against E. coli (E. coli strain ATCC25922) [µM] | Compound | MIC^c/MIC^b: Selectivity index [7] | antibacterial activity in words (SAR analysis) [7] | other results
10 (≈ 4.68 µg/mL) | >125 | Fc1cccc(CN2CCCN(CCc3cc(-c4ccccc4)nc(-c4ccncc4)n3)CC2)c1 [Compound 14dv_amine10] | >12 | – | –
16 (≈ 8.19 µg/mL) | >125 | CCC(CC)c1cc(CCN2CCCN(Cc3cccc(C(F)(F)F)c3)CC2)nc(-c2ccncc2)n1 [Compound 14av_amine17] | >7 | – | –
10 (≈ 4.86 µg/mL) | >125 | Fc1ccc(CN2CCCN(CCc3cc(-c4ccccc4)nc(-c4ccncc4)n3)CC2)cc1F [Compound 14dv_amine12] | >12 | – | –
